Reference: PMC10484210 (Biochemistry, 2023)

Columns and labels:
human PAICS = human PAICS (Homo sapiens, UniProt P22234); format: biochemical; conditions: two concentrations, 10 and 100 μM
BcPurE = BcPurE (Burkholderia cenocepacia, UniProt B4EA21); experiment: biochemical; format: biochemical; conditions: for inhibition of PurE activity in initial screen: two concentrations, 10 and 100 μM, against BcPurE
BcPurE, sequence (B4EA21 1-173): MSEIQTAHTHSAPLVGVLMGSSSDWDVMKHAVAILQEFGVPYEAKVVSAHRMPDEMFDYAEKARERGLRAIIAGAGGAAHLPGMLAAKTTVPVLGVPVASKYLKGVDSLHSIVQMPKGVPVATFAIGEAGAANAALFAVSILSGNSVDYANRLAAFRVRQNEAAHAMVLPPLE

human PAICS, sequence (P22234 whole entry): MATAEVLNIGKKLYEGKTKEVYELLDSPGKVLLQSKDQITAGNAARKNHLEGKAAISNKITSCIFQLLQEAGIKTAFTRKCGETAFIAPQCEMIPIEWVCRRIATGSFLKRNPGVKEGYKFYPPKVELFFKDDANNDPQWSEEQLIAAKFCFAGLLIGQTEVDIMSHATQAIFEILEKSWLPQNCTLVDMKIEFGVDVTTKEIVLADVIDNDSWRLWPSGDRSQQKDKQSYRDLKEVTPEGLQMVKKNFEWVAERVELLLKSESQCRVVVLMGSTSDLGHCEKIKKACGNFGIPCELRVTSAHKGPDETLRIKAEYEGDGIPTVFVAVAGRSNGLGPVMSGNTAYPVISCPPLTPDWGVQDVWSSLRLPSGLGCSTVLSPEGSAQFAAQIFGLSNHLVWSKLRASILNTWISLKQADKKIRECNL

Row | Compound | inhibition of human PAICS decarboxylation activity (human PAICS) | inhibition of PurE activity in initial screen (BcPurE) | IC50 (BcPurE)
1 | CN(C)C/C=C/C(=O)Nc1cc2c(Nc3ccc(F)c(Cl)c3)ncnc2cc1O[C@H]1CCOC1 [Afatinib] | do inhibit | some degree of inhibition | –
2 | COc1cc2nc(N(C)CCCNC(=O)C3CCCO3)nc(N)c2cc1OC (centres unmarked) [Alfuzosin] | little or no inhibition | some degree of inhibition | 47 µM
3 | COc1ccc(CN=c2[nH]c(N3CCC[C@H]3CO)ncc2C(=O)NCc2ncccn2)cc1Cl [Avanafil] | little or no inhibition | some degree of inhibition | –
4 | CCc1cc2c(cc1CC)CC(NC[C@H](O)c1ccc(O)c3[nH]c(=O)ccc13)C2 [Indacaterol] | do inhibit | some degree of inhibition | –
5 | CC(=O)N1CCN(c2ccc(OCC3COC(Cn4ccnc4)(c4ccc(Cl)cc4Cl)O3)cc2)CC1 (centres unmarked) [Ketoconazole] | little or no inhibition | some degree of inhibition | –
